Article PMC5913603, “Structure–activity relationships of strigolactones via a novel, quantitative in planta bioassay” (Journal of Experimental Botany, 2018)
“Also recorded” adds a separate entry of the source. Where two headings read alike, the source gives them in different places.

What was measured:
[1] = Chemical stability in aqueous solutions, degradation followed by HPLC; format: physicochemical
Protocol: The compounds were first dissolved in methanol (30%) or acetonitrile (50%) and then diluted to the final concentrations with water. The time-course of degradation was monitored by HPLC using an Agilent Technologies HPLC chromatograph 1200 Series equipped with a photo-diode array (PDA) detector, a binary-gradient high-pressure pump, and an automatic sampler. The column used was a LiChroCART® 125-4 LiChrospher® 100 RP-18 (5 μm, Merck Millipore) maintained at 25 °C. The solvents were (A) water + 0.1% formic acid and (B) acetonitrile, and the flow rate was 0.8 ml min^–1. The initial mobile phase, 95% A / 5% B, was held for 3 min and then ramped linearly to 100% B at 23 min and held for 5 min before resetting to the original conditions. The sample injection volume was 10 μl. PDA detection was by absorbance in the 200–600-nm wavelength range. Peak detection was at the optimum wavelength (254 nm) and peak areas were used for quantification. Initial and subsequent measurements of peak area attributable to the tested compound were used to fit exponential half-life curves and to calculate first-order rate constants. Stability data allowed for calculation of the time in hours for half of the tested compound to be hydrolysed (t1/2).
Natural and synthetic SLs are rather sensitive to hydrolysis at pH 7 and are readily decomposed through the cleavage of the D-ring at pH 9.38 ([Vurro et al., 2016]). Therefore, differences in activity among SL analogues may be attributed to their instability in the aqueous medium. In order to address this point, the stability in aqueous solutions of the newly synthesized SL-D-lactams was tested, and compared to the (+)-GR24 standard ([Kannan and Zwanenburg, 2014]; [Halouzka et al., 2018]). Two different conditions were considered, a 30% solution of MeOH in water and a 1:1 solution of acetonitrile in water. As expected, stability in MeOH was highly compromised for all compounds, but to a greater extent for analogues showing both the Michael acceptor function (enol ether bridge) and an unprotected N in the D-lactam ring, as for rac-3, rac-4, rac-5, and rac-7 (Table 1): after a few hours 50% of the compounds were degraded. This was not surprising from a chemical point of view, as the functional group in SL-D-lactams is an aminal, which is more prone to hydrolysis than the acetal of the natural SL skeleton. […] For rac-5, the NH compound in the EGO10 family, the half-life dropped to 2 h.

[2] = system: Phelipanche aegyptiaca seeds; test: Germination-inducing activity on parasitic seeds; format: in vivo; conditions: for Fold lower potency than rac-GR24 (germination): compared with rac-GR24
Protocol: Seeds of Phelipanche aegyptiaca were collected from field-grown tomato in the West Galilee region of Israel. The seeds were stored in glass vials in the dark at room temperature until their use in germination tests. For the preparation of test solutions, the compound to be tested was weighed out very accurately, dissolved in acetone at 10^–2 M and then diluted with sterile distilled water to the desired concentrations. All solutions were prepared just before use. Seeds were surface-sterilized and preconditioned as described by [Bhattacharya et al. (2009)]. Briefly, after exposure for 5 min to 50% (v/v) aqueous solutions of commercial bleach (2% hypochlorite), seeds were rinsed with sterile distilled water. For preconditioning, seeds were placed on glass fibre filter discs using a sterile toothpick (approximately 50 seeds per disc); the glass fibre discs were placed on two filter paper discs, wetted with sterile distilled water, and incubated at 25 °C in the dark for 6 d. The preconditioned seeds were then allowed to dry completely in a laminar flow cabinet, after which they were treated with each compound at five different concentrations: 10^–5 M, 10^–6 M, 10^–7 M, 10^–8 M, and 10^–9 M. Their germination rate was evaluated under a stereomicroscope 7 d after the beginning of the treatment. For each concentration, at least 250 seeds were scored; synthetic SL rac-GR24 was included as a positive control across the same range of concentrations, while a solution of 0.001% acetone in sterile distilled water was included as a negative control. Seeds were scored as germinated if the radicle protruded through the seed coat 1 week after treatment. Germination values were normalized to those of rac-GR24 at 10^–7 M.
Fig. 3. Germination-inducing activity on Phelipanche aegyptiaca seeds of rac-1–9 and of strigol, ST23b, EGO10, and EDOT at different concentrations, compared to rac-GR24 0.1 μM as a positive control and to acetone as a negative control. […] The x-axis indicates the range of concentrations. Data are means (±SD) of n>250 seeds. Confidence intervals at 95% are used to express errors of the means. The data for rac-1–9 are indicated by ‘D-lactams’.

[3] = target: T1, AtD14 fused to firefly luciferase (D14::LUC) (Arabidopsis thaliana, UniProt Q9SQR3); test: Luminometer-based competition assay between rac-9 and (+)-GR24; format: in vivo; conditions: rac-9 constant at 10 μM, (+)-GR24 0.01–100 μM
T1 construct: a pDONOR207 carrying the D14 promoter fused to the D14 CDS; expressed in transfected cells
T1 sequence (Q9SQR3 1-267): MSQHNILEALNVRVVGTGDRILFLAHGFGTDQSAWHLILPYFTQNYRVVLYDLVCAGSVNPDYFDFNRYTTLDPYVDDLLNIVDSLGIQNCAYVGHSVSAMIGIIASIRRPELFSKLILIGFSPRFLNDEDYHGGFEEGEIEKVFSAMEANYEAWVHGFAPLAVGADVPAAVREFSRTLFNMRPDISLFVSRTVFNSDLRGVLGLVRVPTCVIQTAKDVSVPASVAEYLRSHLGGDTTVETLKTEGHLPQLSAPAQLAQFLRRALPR
Protocol: The efficacy values in these samples in terms of luminescence quenching were compared with those of samples receiving (+)-GR24 alone (positive control). […] Luciferase competition test between rac-9 and (+)-GR24. (A) Efficacy values for (+)-GR24 across a range of concentrations, normalized to the value at 1 μM, which was set to 100%. (B) Efficacy values for (+)-GR24 across the same range of concentrations as in (A), but in the presence of rac-9 at 10 μM. Data are means (±SD) of n=5 replicates, where each replicate consisted of at least three pooled individual seedlings and readings.

[4] = aqueous acetonitrile solution in HPLC vials, pH 6.7, 1:1 acetonitrile:water, 21 °C, pH 6.7, extrapolated from plots of peak area versus time, read-out: Half-life (t1/2, h) ACN:Water, 1:1 (converted)
[5] = aqueous methanol solution in HPLC vials, pH 6.7, 30% MeOH in water, 21 °C, pH 6.7, extrapolated from plots of peak area versus time, read-out: Half-life (t1/2, h) 30% MeOH (converted)
[6] = aqueous solutions in HPLC vials, summary statement in the discussion, read-out: Half-life time (t1/2), solvent not specified / depending on the solvent

half-life at 200 μg ml^–1 [1, 4]	half-life at 200 μg ml^–1 [1, 5]	half-life at 200 μg ml^–1 [1, 6]	Compound	Fold lower potency than rac-GR24 (germination) [2]	Concentration at which high germination activity was shown ([2]; high activity only at this concentration, germination normalized to rac-GR24 0.1 μM)	Germination efficiency at 1 μM ([2]; 1 μM)	Concentration at which some germination activity could still be detected ([2]; tested 10^-9 to 10^-5 M)	Antagonism of (+)-GR24 [3]	Germination activity at 10 μM ([2]; 10 μM)
3.8 h	~3 h	< 4 h	CC1=C[C@H](O/C=C2/C(=O)O[C@@H]3c4ccccc4C[C@H]23)NC1=O (racemic) [rac-3]	~ 100 fold	10 µM	–	–	–	–
4.4 h	~3 h	–	CC1=C[C@H](O/C=C2/C(=O)O[C@H]3c4ccccc4C[C@@H]23)NC1=O (racemic) [rac-4]	~ 10 fold	–	efficiency comparable to GR24	1 µM	–	–
2900 h	1100 h	1000 to 3000 h	CC1=CC(C2Cc3c(n(C)c4ccccc34)C2=O)NC1=O (racemic) [rac-9]	–	–	–	–	no antagonistic behaviour; also recorded: did not possess antagonistic activity	inactive
